Reference: patent US20170253917A1, “METHODS AND SYSTEMS FOR DETERMINING ANTIBIOTIC SUSCEPTIBILITY” (priority 2016, published 2017)

System: 1496 clinical isolates of E. coli
Assay: Phenotypic antibiotic susceptibility testing, MicroScan WalkAway plus System, Neg MIC 45 panel
Assay type: cell-based
Conditions: for Phenotype of the E. coli isolates in words: 1496 E. coli isolates; for Measured Phenotype Susceptible (%) / Measured Phenotype Resistant (%): share of the 1496 E. coli isolates; for Measured Phenotype Resistant (%): resistant or intermediate combined as resistant
Procedure: Phenotypic antibiotic susceptibility testing was performed and an antibiotic response of resistant, intermediate or susceptible was assigned to each E. coli isolate per antibiotic based on minimal inhibitory concentrations as described in the MicroScan product insert. Phenotypic antibiotic susceptibility testing was performed on the 1496 E. coli isolates using the MicroScan WalkAway plus System and the Neg MIC 45 panel (P/N B1017-424) which covers 25 antibiotics. Cryopreserved isolates were sub-cultured twice on blood agar plates prior to antibiotic susceptibility testing. The MicroScan instrument was used to assign an antibiotic response of resistant, intermediate or susceptible for each isolate per antibiotic based on minimal inhibitory concentrations as described in the MicroScan product insert. Assignments of resistant or intermediate were combined and reported as resistant in this example. Assignments of susceptible are reported as such in this example.

| Molecule | Phenotype of the E. coli isolates in words | Measured Phenotype Susceptible (%) | Measured Phenotype Resistant (%) |
| --- | --- | --- | --- |
| NCC[C@H](O)C(=O)N[C@@H]1C[C@H](N)[C@@H](O[C@H]2O[C@H](CN)[C@@H](O)[C@H](O)[C@H]2O)[C@H](O)[C@H]1O[C@H]1O[C@H](CO)[C@@H](O)[C@H](N)[C@H]1O [Amikacin] | the vast majority of isolates exhibited phenotypic susceptibility | 94% | 6% |
| CC1(C)S[C@@H]2[C@H](NC(=O)[C@H](N)c3ccccc3)C(=O)N2[C@H]1C(=O)O [Ampicillin] | the vast majority of isolates exhibited phenotypic resistance | 3% | 97% |
| C[C@H]1[C@H](NC(=O)/C(=N\OC(C)(C)C(=O)O)c2csc(N)n2)C(=O)N1S(=O)(=O)O [Aztreonam] | – | 9% | 91% |
| Cc1nnc(SCC2=C(C(=O)O)N3C(=O)[C@@H](NC(=O)Cn4cnnn4)[C@H]3SC2)s1 [Cefazolin] | the vast majority of isolates exhibited phenotypic resistance | 5% | 95% |
| CO/N=C(\C(=O)N[C@@H]1C(=O)N2C(C(=O)[O-])=C(C[N+]3(C)CCCC3)CS[C@H]12)c1csc(N)n1 [Cefepime] | – | 10% | 90% |
| CO/N=C(\C(=O)N[C@@H]1C(=O)N2C(C(=O)O)=C(COC(C)=O)CS[C@H]12)c1csc(N)n1 [Cefotaxime] | – | 9% | 91% |
| CO[C@@]1(NC(=O)Cc2cccs2)C(=O)N2C(C(=O)O)=C(COC(N)=O)CS[C@@H]21 [Cefoxitin] | – | 79% | 21% |
| CC(C)(O/N=C(\C(=O)N[C@@H]1C(=O)N2C(C(=O)[O-])=C(C[n+]3ccccc3)CS[C@H]12)c1csc(N)n1)C(=O)O [Ceftazidime] | – | 9% | 91% |
| CO/N=C(\C(=O)N[C@@H]1C(=O)N2C(C(=O)O)=C(CSc3nc(=O)c(=O)[nH]n3C)CS[C@H]12)c1csc(N)n1 [Ceftriaxone] | – | 8% | 92% |
| CO/N=C(\C(=O)N[C@@H]1C(=O)N2C(C(=O)O)=C(COC(N)=O)CS[C@H]12)c1ccco1 [Cefuroxime] | – | 7% | 93% |
| C[C@@H](O)[C@H]1C(=O)N2C(C(=O)O)=C(S[C@@H]3CN[C@H](C(=O)Nc4cccc(C(=O)O)c4)C3)[C@H](C)[C@H]12 [Ertapenem] | the vast majority of isolates exhibited phenotypic susceptibility | 98% | 4% |
| C[C@@H](O)[C@H]1C(=O)N2C(C(=O)O)=C(SCCN=CN)C[C@H]12 [Imipenem] | – | 97% | 3% |
| C[C@H]1COc2c(N3CCN(C)CC3)c(F)cc3c(=O)c(C(=O)O)cn1c23 [Levofloxacin] | – | 19% | 81% |
| C[C@@H](O)[C@H]1C(=O)N2C(C(=O)O)=C(S[C@@H]3CN[C@H](C(=O)N(C)C)C3)[C@H](C)[C@H]12 [Meropenem] | the vast majority of isolates exhibited phenotypic susceptibility | 98% | 2% |
| CCN1CCN(C(=O)N[C@@H](C(=O)N[C@@H]2C(=O)N3[C@@H]2SC(C)(C)[C@@H]3C(=O)O)c2ccccc2)C(=O)C1=O [Piperacillin] | the vast majority of isolates exhibited phenotypic resistance | 4% | 96% |
| CN(C)[C@@H]1C(O)=C(C(N)=O)C(=O)[C@@]2(O)C(O)=C3C(=O)c4c(O)cccc4[C@@](C)(O)[C@H]3C[C@@H]12 [Tetracycline] | – | 32% | 68% |
| CN(C)c1cc(NC(=O)CNC(C)(C)C)c(O)c2c1C[C@H]1C[C@H]3[C@H](N(C)C)C(O)=C(C(N)=O)C(=O)[C@@]3(O)C(O)=C1C2=O [Tigecycline] | the vast majority of isolates exhibited phenotypic susceptibility | 99.6% | 0.4% |
| NC[C@H]1O[C@H](O[C@H]2[C@H](O)[C@@H](O[C@H]3O[C@H](CO)[C@@H](O)[C@H](N)[C@H]3O)[C@H](N)C[C@@H]2N)[C@H](N)C[C@@H]1O [Tobramycin] | – | 45% | 55% |
| Amoxicillin/K Clavulanate | – | 43% | 57% |
| Ampicillin/Sulbactam | – | 16% | 84% |
| Gentamicin | – | 61% | 39% |
| Piperacillin/Tazobactam | – | 84% | 16% |
| Ticarcillin/K Clavulanate | – | 56% | 44% |
| Trimethoprim/Sulfamethoxazole | – | 36% | 64% |
